According to patent publication US20060120975A1, “Oral care composition comprising a phenolic compound and antioxidant vitamins and vitamin derivatives” (Colgate-Palmolive Company, priority 2004, published 2006):

Test system: IL-1β stimulated PGE2 production
Assay: IL-1β stimulated PGE2 production cell culture assay, an inflammation model
Assay type: cell-based
Settings: vitamin or vitamin derivative added to triclosan
From the text: The present invention is in part derived from a finding that, upon addition of an antioxidant vitamin or vitamin derivative to an antibacterial phenolic compound having anti-inflammatory activity, in particular a halogenated diphenylether compound having such activity, the anti-inflammatory activity can be enhanced.

Row | Compound | enhancing the anti-inflammatory activity of triclosan
1 | Cc1c(C)c2c(c(C)c1O)CCC(C)(C(=O)O)O2 (centres unmarked) [TROLOX®] | especially effective
2 | O=C1O[C@H]([C@@H](O)CO)C(O)=C1O [ascorbic acid] | especially effective
3 | CC(=O)Oc1c(C)c(C)c2c(c1C)CCC(C)(CCC[C@H](C)CCC[C@H](C)CCCC(C)C)O2 (some centres unmarked) [vitamin E acetate] | especially effective
4 | vitamin E | less dramatic enhancement
5 | CCCCCCCCCCCCCCCC(=O)OC[C@H](O)[C@H]1OC(=O)C(O)=C1O [Ascorbyl palmitate, ascorbyl palmitate] | less dramatic enhancement
